Data as given in PMC12257356, “Structure-guided engineering of a polyphosphate kinase 2 class III from an Erysipelotrichaceae bacterium to produce base-modified purine nucleotides” (RSC Chemical Biology, 2025).

Columns and labels:
[1] = target: T1, EbPPK2 (polyphosphate kinase 2 class III from an Erysipelotrichaceae bacterium) (Erysipelotrichaceae bacterium, UniProt P0DY74); experiment: HPLC conversion to NDP/NTP; assay type: biochemical; conditions: 1 mM NMP, 1 μM enzyme, 6.1 g/L sodium polyphosphate, 20 mM MgCl2, 20 mM Tris pH 8, 30 °C, 10 min
T1 construct: gene DHS57_05705; purified; 146 kDa homotetramer
T1 sequence (P0DY74 1-298): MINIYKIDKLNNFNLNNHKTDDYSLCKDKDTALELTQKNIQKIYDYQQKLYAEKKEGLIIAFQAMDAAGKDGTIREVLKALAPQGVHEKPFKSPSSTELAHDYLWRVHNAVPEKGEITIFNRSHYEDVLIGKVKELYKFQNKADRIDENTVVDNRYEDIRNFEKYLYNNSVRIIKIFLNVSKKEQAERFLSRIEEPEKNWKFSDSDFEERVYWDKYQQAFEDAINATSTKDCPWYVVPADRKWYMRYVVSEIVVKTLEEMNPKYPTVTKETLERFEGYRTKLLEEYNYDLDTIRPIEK

[2] = target: T1, EbPPK2 (polyphosphate kinase 2 class III from an Erysipelotrichaceae bacterium); experiment: X-ray crystal structure; conditions: 1.7 Å; ternary complex with polyP and Mg2+; nucleotide-binding pocket of the active site

| Compound | HPLC conversion to NDP/NTP [1] | X-ray crystal structure [2] |
| --- | --- | --- |
| Nc1ncnc2c1ncn2[C@@H]1O[C@H](COP(=O)(O)O)[C@@H](O)[C@H]1O [1a, AMP] | Starting from AMP (1a), the reaction approached a distribution of AMP |  |
| Nc1nc2c(ncn2[C@@H]2O[C@H](COP(=O)(O)O)[C@@H](O)[C@H]2O)c(=O)[nH]1 [5a, GMP] | GMP and GMP-like analogues were phosphorylated more slowly by EbPPK |  |
| Nc1ncnc2c1ncn2[C@@H]1O[C@H](COP(=O)(O)OP(=O)(O)CP(=O)(O)O)[C@@H](O)[C@H]1O [adenosine-5′-[(β,γ)-methyleno]triphosphate] |  | EbPPK2 in complex with the non-hydrolysable ATP analogue adenosine-5′-[(β,γ)-methyleno]triphosphate (ACP) and polyP (PDB: 9IGQ) |
